# Where no end group is shown, it is not given here.
# Key:
# Type in all cases: cell-based, human
# [1] = tested on: CD49c-positive cell aggregates reaggregated after FACS purification from hESC sample; experiment: ACTH secretion test with secretion suppressor cortisol; settings: CD49c-positive cells (FACS, hESC sample), cultured 13 days, 3 hours pretreatment, Hydrocortisone 20 µg/ml vs 0.1% DMSO, standard glucose medium 30 minutes, ECLIA
# Method: As a test method, a cell aggregate that was reaggregated after FACS purification from a hESC sample and cultured for 12 days was used. Each cell aggregate was transferred to a 1.5 ml microtube, incubated in 250 μl of standard glucose medium (glucose-free DMEM+5.56 mM D-glucose+4.44 mM D-mannitol) at 37° C. for 30 minutes, and then the medium was collected. Subsequently, the aggregate was incubated in 250 μl of standard glucose medium containing 1 μg/ml CRH (Peptide Institute, #4136-s) at 37° C. for 30 minutes, and then the medium was collected. The ACTH concentration in the collected medium was measured by the ECLIA method used in clinical testing. […] As a test method, a cell aggregate that was reaggregated after FACS purification from a hESC sample and cultured for 13 days was used. Before secretion measurement, cells were pretreated for 3 hours with maintenance medium (gfCDM+20% KSR+2 μM SAG) containing cortisol (Hydrocortisone, […]) or the same amount of solvent (0.1% DMSO) as a control. […] The ACTH concentration in the collected medium was measured by the ECLIA method used in clinical testing. […] ACTH concentration in the collected medium etc., was measured by the ECLIA method used in clinical testing. […]
# [2] = tested on: CD49c-positive cell aggregates reaggregated after FACS purification from hESC sample; experiment: ACTH secretion test (CRH stimulation) on reaggregates after FACS purification; settings: CD49c-positive cells (FACS, hESC sample), cultured 12 days, 1 μg/ml CRH in standard glucose medium, 37° C., 30 minutes, ECLIA
# Method: As a test method, a cell aggregate that was reaggregated after FACS purification from a hESC sample and cultured for 12 days was used. Each cell aggregate was transferred to a 1.5 ml microtube, incubated in 250 μl of standard glucose medium (glucose-free DMEM+5.56 mM D-glucose+4.44 mM D-mannitol) at 37° C. for 30 minutes, and then the medium was collected. Subsequently, the aggregate was incubated in 250 μl of standard glucose medium containing 1 μg/ml CRH (Peptide Institute, #4136-s) at 37° C. for 30 minutes, and then the medium was collected. The ACTH concentration in the collected medium was measured by the ECLIA method used in clinical testing. […] As a test method, a cell aggregate that was reaggregated after FACS purification from a hESC sample and cultured for 13 days was used. Before secretion measurement, cells were pretreated for 3 hours with maintenance medium (gfCDM+20% KSR+2 μM SAG) containing cortisol (Hydrocortisone, […]) or the same amount of solvent (0.1% DMSO) as a control. […] The ACTH concentration in the collected medium was measured by the ECLIA method used in clinical testing.
# (§1) Cell aggregates that were reaggregated after MACS or FACS purification and cultured for 8 days or more were used. […] ACTH concentration in the collected medium etc., was measured by the ECLIA method used in clinical testing. […]
# [3] = tested on: cell aggregates reaggregated after FACS purification from hiPSC sample (CD49c-positive / CD49c-negative cells); experiment: ACTH secretion test (CRH stimulation) on hiPSC sample reaggregates; settings: cultured 21 days, 1 μg/ml CRH in standard glucose medium, 37° C., 30 minutes, ECLIA
# Method: As a test method, a cell aggregate that was reaggregated after FACS purification from a hiPSC sample and cultured for 21 days was used. Each cell aggregate was transferred to a 1.5 ml microtube, incubated in 250 μl of standard glucose medium (glucose-free DMEM+5.56 mM D-glucose+4.44 mM D-mannitol) at 37° C. for 30 minutes, and then the medium was collected. Subsequently, the aggregate was incubated in 250 μl of standard glucose medium containing 1 μg/ml CRH (Peptide Institute, #4136-s) at 37° C. for 30 minutes, and then the medium was collected. The ACTH concentration in the collected medium was measured by the ECLIA method used in clinical testing.
# (§2) Cell aggregates that were reaggregated after MACS or FACS purification and cultured for 8 days or more were used. One or five cell aggregates were incubated at a predetermined temperature and for a predetermined time using a predetermined medium, etc., and then the medium and the like were collected. ACTH concentration in the collected medium etc., was measured by the ECLIA method used in clinical testing. In addition, when confirming the influence of secretion suppressing factors and CRH receptor inhibitors, pretreatment was performed for a predetermined period of time with a maintenance medium containing secretion suppressing factors and CRH receptor inhibitors before secretion measurement.
# [4] = tested on: cell aggregates reaggregated after MACS purification from hESC sample (CD49c-positive / CD49c-negative cells); experiment: ACTH secretion test (CRH stimulation) on reaggregates after MACS purification; settings: 8 days after reaggregation, 5 aggregates, 1 μg/ml CRH in HBSS, 37° C., 10 minutes, ECLIA
# Method: The test method used cell aggregates that were cultured for 8 days after MACS purification from a sample differentiated from hESC (also referred to as “hESC sample”) and reaggregation. 5 cell aggregates were transferred to a 1.5 ml microtube and incubated in 250 μl of HBSS(+) (Wako, #084-08965) at 37° C. for 10 minutes, and then HBSS was collected. Subsequently, HBSS was collected after incubation at 37° C. for 10 minutes in 250 μl of HBSS containing 1 μg/ml CRH (Peptide Institute, #4136-s). The ACTH concentration in the collected HBSS was measured by the ECLIA method used in clinical testing.
# as §2
# [5] = tested on: CD49c-positive cell aggregates reaggregated after FACS purification from hESC sample; experiment: ACTH secretion test with CRH receptor inhibitor under standard and low glucose; settings: 3 hours pretreatment, vs 0.1% DMSO, 30 minutes, aggregates cultured 13-15 days
# Method: As a test method, a cell aggregate that was reaggregated after FACS purification from a hESC sample and cultured for 13-15 days was used. Before secretion measurement, cells were pretreated for 3 hours with maintenance medium (gfCDM+20% KSR+[…]) containing antalarmin […] or the same amount of solvent (0.1% DMSO) as a control. Each pretreated cell aggregate was transferred to a 1.5 ml microtube, incubated in 250 μl of standard glucose medium (glucose-free DMEM+5.56 mM D-glucose+4.44 mM D-mannitol) at 37° C. for 30 minutes, and the medium was collected. Subsequently, the aggregate was incubated in 250 μl of low glucose medium (glucose-free DMEM+0.56 mM D-glucose+9.44 mM D-mannitol) at 37° C. for 30 minutes, and then the medium was collected. Antalarmin or DMSO was continuously added to the standard glucose medium and low glucose medium described above. The results of measuring the ACTH concentration in the collected medium using the ECLIA method used in clinical tests are shown. It was confirmed that ACTH secretion increased under low glucose conditions (10 mg/dL) compared to standard glucose conditions (100 mg/dL). […]
# as §1
molecule,measurement,setting,value
"C[C@]12CCC(=O)C=C1CC[C@@H]1[C@@H]2[C@@H](O)C[C@@]2(C)[C@H]1CC[C@]2(O)C(=O)CO [cortisol, Hydrocortisone]",ACTH secreted per cell aggregate before and after cortisol treatment,[1],ACTH secretion was reduced
"CRH: CRH (Peptide Institute, #4136-s), a physiological secretion stimulating factor (SEEPPISLDLTFHLLREVLEMARAEQLAQQAHSNRKLMEII; ends and bridges not checked; UniProt P06850 154-194, looked up)",ACTH secretion per cell aggregate before and after CRH stimulation,[2],ACTH secretion increases
same,ACTH secretion per cell aggregate before and after CRH stimulation,"[3]; CD49c-negative cells (FACS, hiPSC sample)",did not respond to CRH
same,ACTH secretion per cell aggregate before and after CRH stimulation,"[3]; CD49c-positive cells (FACS, hiPSC sample)",increased ACTH secretion
same,ACTH secretion before and after CRH stimulation,"[4]; CD49c-negative cells (MACS, hESC sample)",did not respond to CRH
same,ACTH secretion before and after CRH stimulation,"[4]; CD49c-positive cells (MACS, hESC sample)",increased ACTH secretion
CCCCN(CC)c1nc(C)nc2c1c(C)c(C)n2-c1c(C)cc(C)cc1C [Antalarmin],ACTH secretion with Antalarmin treatment,[5]; low glucose conditions (10 mg/dL),reduced ACTH secretion
same,ACTH secretion with Antalarmin treatment,[5]; standard glucose conditions (100 mg/dL),reduced ACTH secretion

# Reference: patent publication US20250034522A1, “METHOD FOR SEPARATING PITUITARY CELLS AND HYPOTHALAMIC CELLS USING CELL SURFACE MARKER” (FUJITA ACADEMY, priority 2021, published 2025)
